Laboratory results from BindingDB's records for doi:10.1016/s0960-894x(02)00329-3 (Sankyo, 2002).

Target: Neuraminidase (Influenza A virus (strain A/Puerto Rico/8/1934 H1N1), UniProt P03468)
Experiment: Inhibition of influenza A sialidase in vitro.

Neuraminidase, sequence (P03468 whole entry): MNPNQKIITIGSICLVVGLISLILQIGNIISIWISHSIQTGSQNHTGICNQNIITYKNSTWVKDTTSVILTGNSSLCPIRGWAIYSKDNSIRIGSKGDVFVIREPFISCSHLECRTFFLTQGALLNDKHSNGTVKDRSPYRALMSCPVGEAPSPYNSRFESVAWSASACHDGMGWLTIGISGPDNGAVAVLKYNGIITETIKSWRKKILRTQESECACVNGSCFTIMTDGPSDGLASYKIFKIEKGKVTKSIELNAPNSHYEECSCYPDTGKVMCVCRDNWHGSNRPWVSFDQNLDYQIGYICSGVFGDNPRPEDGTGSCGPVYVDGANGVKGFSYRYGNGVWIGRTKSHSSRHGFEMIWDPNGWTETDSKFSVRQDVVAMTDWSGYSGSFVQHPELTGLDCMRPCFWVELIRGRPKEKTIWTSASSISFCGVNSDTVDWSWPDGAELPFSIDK

How did the IC50 turn out when `[C]C(=O)[N][C][C]O[C@@H]([C@@H]1OC(C([O])=O)=[C][C@H](N=C([N])[N])[C@H]1[N]C([C])=O)[C@H]([O])[C][O]` was run?
Its IC50 is 18.4 nM.

How did the IC50 turn out when `[C][C][C][C][C]O[C@H]([C][C])[C@@H]1OC(C([O])=O)=[C][C@H](N=C([N])[N])[C@H]1[N]C([C])=O` was run?
The IC50 was 18.8 nM.
